# Results from patent US20060052451A1, “Method” (priority 2002, published 2006).
# Read-outs that look alike come from different tables or passages of the source.
# How the values were obtained:
# [1] = system: PC3 cells (human prostate cancer-derived); assay: SRB growth inhibition assay, PC3 cells; type: cell-based
# Procedure: (§1) The effect of perfluorinated compounds on the inhibition of tumour cell growth was assessed iii vitro using three human tumour-derived cell lines. Cancer cell lines were tested using the sulphorhodamine B (SRB) assay (which measures cellular protein and is directly related to cell number), which is utilised by the […] to screen anti-cancer agents.
# (§2) HT-29 cells (human colon tumour-derived), MCF7 cells (human breast cancer-derived) and PC3 cells (human prostate cancer-derived) were harvested and diluted (to 5×10^4 cells per ml, 1×10^5 cells per ml and 7.5×10^4 cells per ml respectively) in RPMI 1640 medium containing 5% FBS, 2 mM glutamine and. 50 μg/ml gentamicin. 100 μl of cell suspension per well was added to 96 well plates and allowed to attach overnight. Cells were exposed to test compounds dissolved in DMSO in 100 μl of medium to give final drug concentrations of 0, 0.3, 1, 3, 10, 30, 100, 300, 1000 and 3000 μM (and DMSO at 0.25%). (n=6 for each drug concentration). After 48 hours, cells were fixed in 10% trichloroacetic acid (TCA) at 4° C. for 1-2 hours then washed using water and subsequently air-dried. 100 μl SRB solution (0.4%) in 1% Acetic Acid was added to each well, and plates were incubated at room temperature for 10 minutes. Unbound dye was removed by washing with 1% acetic acid. Plates were air-dried and bound stain was solubilised in 10 mM Tris base and the absorbance read at 520 nm.
# [2] = 7-day oral gavage study, metabolic parameters, body weight and food consumption in CR SD rats; type: in vivo, rat; settings: for Cholesterol (plasma) / Glucose (plasma) / Insulin (plasma) / Triglycerides (plasma): n=5; for Bodyweight change: continued till end of treatment
# Procedure: Two groups (n=5) of CR SD rats (approximately 300 g) were treated with 2 dose levels of perfluorinated compounds (15 and 25 mg/kg/day body weight). Animals were administered test substances, dissolved in corn oil, by oral gavage, daily for 7 days. One group of 20 CR SD rays was also treated with vehicle (corn oil) alone. Body weight and food consumption were monitored daily.
# Twenty-four hours after the last dose the animals were killed by an increasing concentration of carbon dioxide. Blood was collected by cardiac puncture and plasma was prepared and stored at −70° C. until analysed.
# Plasma was analysed for triglycerides, cholesterol, and glucose, using kits purchased from Sigma. Concentrations of plasma insulin were determined using a commercially available enzyme-immunoassay-based kit from Amersham Biosciences. All assays were carried out as specified by the manufacturer.
# PPAR gamma = target: T1, PPAR gamma (Homo sapiens, UniProt P37231); assay: PPAR gamma transactivation assay in COS-1 cells; type: cell-based
# T1 construct: 25 ng of vector DNA carrying PPAR alpha, delta or gamma; expressed in transfected cells; host or cells: COS-1 (African green monkey kidney cells)
# T1 sequence (P37231 1-505): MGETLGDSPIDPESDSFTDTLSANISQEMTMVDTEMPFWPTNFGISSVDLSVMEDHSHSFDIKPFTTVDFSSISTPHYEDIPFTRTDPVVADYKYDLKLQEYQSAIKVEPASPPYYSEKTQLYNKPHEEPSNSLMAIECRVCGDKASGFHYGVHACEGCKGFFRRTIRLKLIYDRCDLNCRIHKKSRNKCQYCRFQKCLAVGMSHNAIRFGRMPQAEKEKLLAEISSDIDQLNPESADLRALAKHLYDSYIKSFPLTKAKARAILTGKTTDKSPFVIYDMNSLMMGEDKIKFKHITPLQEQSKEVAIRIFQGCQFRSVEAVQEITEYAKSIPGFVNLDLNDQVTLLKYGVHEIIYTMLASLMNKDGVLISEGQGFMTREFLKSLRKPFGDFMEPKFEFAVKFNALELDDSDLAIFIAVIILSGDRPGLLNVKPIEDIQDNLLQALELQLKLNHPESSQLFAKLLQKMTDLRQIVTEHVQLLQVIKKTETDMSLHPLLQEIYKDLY
# [3] = system: MCF7 cells (human breast cancer-derived); assay: SRB growth inhibition assay, MCF7 cells; type: cell-based; settings: 48 hours exposure
# Procedure: as §1, §2
# [4] = system: HT-29 cells (human colon tumour-derived); assay: SRB growth inhibition assay, HT-29 cells; type: cell-based; settings: 48 hours exposure
# Procedure: as §1, §2
# PPAR delta = target: T2, PPAR delta (Homo sapiens, UniProt Q03181); assay: PPAR delta transactivation assay in COS-1 cells; type: cell-based; design: Fold activation of PPAR delta: dose or concentration left out as unconfirmed; settings: for Fold activation of PPAR delta: mean±SD n=3; for Inhibition of activation of PPAR delta (by a factor of): transactivation assay
# T2 construct: 25 ng of vector DNA carrying PPAR alpha, delta or gamma; expressed in transfected cells; host or cells: COS-1 (African green monkey kidney cells)
# T2 sequence (Q03181 1-441): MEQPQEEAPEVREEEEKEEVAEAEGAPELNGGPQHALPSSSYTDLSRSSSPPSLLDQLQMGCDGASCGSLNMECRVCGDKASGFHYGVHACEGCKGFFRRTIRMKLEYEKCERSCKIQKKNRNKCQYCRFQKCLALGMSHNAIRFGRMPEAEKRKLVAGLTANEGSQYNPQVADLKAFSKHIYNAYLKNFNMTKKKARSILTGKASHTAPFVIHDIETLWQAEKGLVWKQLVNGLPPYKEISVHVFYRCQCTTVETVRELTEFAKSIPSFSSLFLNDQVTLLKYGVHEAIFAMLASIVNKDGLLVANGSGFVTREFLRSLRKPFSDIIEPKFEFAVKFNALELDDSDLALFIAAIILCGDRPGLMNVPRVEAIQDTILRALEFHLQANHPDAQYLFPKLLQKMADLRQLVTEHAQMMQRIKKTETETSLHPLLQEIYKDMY
# [5] = Plasma levels of PFOA after 11 days oral dosing in SD rats (LC/MS/MS); type: in vivo, rat; settings: 25 mg/kg oral daily for 11 days, 24 hours after final administration
# Procedure: The study consisted of one control group of 8 male CD Sprague Dawley rats (8-10-weeks old; obtained from Harlan, UK) and 4 test groups that contained 4 rats. Animals received powdered RM1 diet ad libitum for the duration of the study. […] All chemicals were dissolved in Mazola corn oil (at 2.5 mg/ml) and test compounds were administered at 10 ml/kg bodyweight. Control animal received Mazola corn oil only. All animals were sacrificed after 11 days. Animals were killed by exposure to rising concentrations of CO2, and blood was harvested into lithium/heparin tubes for plasma.
# Rat plasma samples were denatured by adding acetonitrile, and the amount of perfluorooctanoic acid (PFOA) present was determined by LC/MS/MS.
# [6] = system: three human tumour-derived cell lines (HT-29, MCF7, PC3); assay: SRB growth inhibition, summary over the three human tumour cell lines; type: cell-based; settings: over HT-29, MCF7 and PC3
# Procedure: as §1, §2
# [7] = target: T3, human PPAR-alpha ligand binding domain (Homo sapiens, UniProt Q07869); assay: PPAR alpha ligand binding (displacement of DAUDA); settings: for Kd: DAUDA displacement
# T3 sequence (Q07869 179-468): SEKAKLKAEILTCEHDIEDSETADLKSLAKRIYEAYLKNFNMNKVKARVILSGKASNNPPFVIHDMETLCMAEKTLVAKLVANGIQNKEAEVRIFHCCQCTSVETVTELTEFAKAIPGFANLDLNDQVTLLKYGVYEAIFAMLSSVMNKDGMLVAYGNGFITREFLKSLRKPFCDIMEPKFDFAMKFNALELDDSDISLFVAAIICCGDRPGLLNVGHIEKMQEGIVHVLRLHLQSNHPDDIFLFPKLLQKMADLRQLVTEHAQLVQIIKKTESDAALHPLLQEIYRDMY
# [8] = target: T4, human PPAR-gamma ligand binding domain (Homo sapiens, UniProt P37231); assay: PPAR gamma ligand binding (displacement of cis-parinaric acid)
# T4 sequence (P37231 202-505): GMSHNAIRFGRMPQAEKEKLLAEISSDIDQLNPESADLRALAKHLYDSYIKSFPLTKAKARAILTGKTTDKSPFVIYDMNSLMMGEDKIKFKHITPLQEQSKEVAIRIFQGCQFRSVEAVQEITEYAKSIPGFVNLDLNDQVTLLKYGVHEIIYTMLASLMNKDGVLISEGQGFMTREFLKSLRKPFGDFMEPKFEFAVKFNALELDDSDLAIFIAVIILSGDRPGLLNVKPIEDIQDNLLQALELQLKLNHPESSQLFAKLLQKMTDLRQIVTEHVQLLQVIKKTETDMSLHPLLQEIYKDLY
# [9] = 21-day diet study, bodyweights of SD rats; type: in vivo, rat; settings: 300 ppm in diet, 21 days
# Procedure: This experiment investigated the effect of compounds of different % linearity on body weight over a longer study period.
# The diet study consisted of one control group of 4 male animals and 4 test groups of 4 male animals (as specified earlier in this Example). Animals received powdered RM1 diet alone, or RM1 diet containing 300 ppm XEN1001 or XEN1002, ad libitum for the duration of the study. Bodyweights were measured daily for 21 days.
# [10] = Homo sapiens, PC-3, 48 hours exposure
# [11] = 15 mg/kg/day oral gavage 7 days
# [12] = 25 mg/kg/day oral gavage 7 days
# [13] = at 10 μM (maximal activation by test compound), value in parenthesis = positive control at 10 μM
Structure (SMILES),"IC50 [1, 10] [µM]","Cholesterol (plasma) [2, 11] [mmol/L]","Glucose (plasma) [2, 11] [mmol/L]","Insulin (plasma) [2, 11] [ng/mL]","Triglycerides (plasma) [2, 11] [mmol/L]","Plasma insulin, % of control values ([2]; 25 mg/kg) [%]","Cholesterol (plasma) [2, 12] [mmol/L]","Glucose (plasma) [2, 12] [mmol/L]","Insulin (plasma) [2, 12] [ng/mL]","Triglycerides (plasma) [2, 12] [mmol/L]",Bodyweight change ([2]; 15 and 25 mg/kg/day),"Fold activation of PPAR gamma (PPAR gamma; at 1 mM, mean±SD n=3) [fold]","IC50 ([3]; Homo sapiens, MCF7, 48 h) [µM]","IC50 ([4]; Homo sapiens, HT-29, 48 h) [µM]",Fold activation of PPAR delta (PPAR delta) [fold],Plasma concentration of PFOA (free acid) [5],IC50 ([6]; Homo sapiens) [µM],Reduction in binding affinity for PPAR alpha compared to PFOA [7] [fold],Fold activation of PPAR gamma (PPAR gamma; [13]) [fold],Inhibition of activation of PPAR delta (by a factor of) (PPAR delta),other results
"COC(=O)C(F)(F)C(F)(F)C(F)(F)C(F)(F)C(F)(F)C(F)(F)C(F)(F)F [MPOA, Methyl perfluorooctanoate]",> 3000,1.17 ± 0.31,11.48 ± 1.27,4.87 ± 2.611,0.28 ± 0.08,15.6,0.73 ± 0.23,12.99 ± 2.07,28.74 ± 17.22,0.6 ± 0.89,lost bodyweight after day 3,2.92 ± 0.12,> 2790,> 3000,1.51 ± 0.31,equimolar concentrations of PFOA,~3000,,,,"Plasma insulin, % of control values ([2]; 15 mg/kg): 2.6%; Weight loss ([2]; 15 mg/kg, 7 days): 8.2%; Plasma cholesterol, % of control values ([2]; 25 mg/kg): 36.7%; Plasma triglycerides, % of control values ([2]; 25 mg/kg): 33.7%; Bodyweight lost ([2]; 25 mg/kg, after day 6, terminated early): 8%; Food consumption ([2]; 15 and 25 mg/kg/day, versus control): dose-related, decreases in food consumption; Plasma glucose, % of control values ([2]; dose not stated): 78.6%"
"O=C(O)C(F)(F)C(F)(F)C(F)(F)C(F)(F)C(F)(F)C(F)(F)F [PFHA, Perfluoroheptanoic acid]",321,1.50 ± 0.23,16.43 ± 2.59,114.2 ± 90.06,0.94 ± 0.20,,1.46 ± 0.17,18.15 ± 2.78,165.1 ± 114.4,0.75 ± 0.26,,,573,371,0.45 ± 0.28,,200 to 600,30,3.43 ± 2.62,2.2,Kd [8]: 99 µM
"O=C(O)C(F)(F)C(F)(F)F [PFPA, Perfluropropionic acid]",,1.28 ± 0.10,15.46 ± 1.13,129 ± 36.05,1.02 ± 0.38,,1.39 ± 0.39,14.97 ± 1.29,179.7 ± 177.1,0.95 ± 0.17,lost bodyweight after day 3,1.86 ± 0.81,,,0.63 ± 0.25,,,,,1.6,"IC50 ([1]; 48 hours exposure): > 3000 µM; Kd ([7]; read-out: PPAR Receptor Binding Kd Alpha (apparent Kd)): 2 µM; IC50 [3]: > 3000 µM; IC50 [4]: > 3000 µM; Reduction in binding affinity for PPAR gamma compared to PFOA [8]: ~2 fold; Kd ([8]; read-out: PPAR Receptor Binding Kd Gamma (apparent Kd), cis-parinaric acid displacement): 0.6 µM; IC50 [6]: ~3000 µM"
"O=C(O)C(F)(F)C(F)(F)C(F)(F)C(F)(F)F [PFPenA, Perfluoropentanoic acid]",2630,1.83 ± 0.41,16.22 ± 1.29,124.7 ± 126.3,1.24 ± 0.04,33.9,1.67 ± 0.20,16.67 ± 0.93,62.6 ± 68.26,1.07 ± 0.37,,,> 3000,> 3000,0.45 ± 0.04,,~3000,10,5.07 ± 2.29,2.2,Kd ([7]; PPAR Receptor Binding Kd Alpha (apparent Kd)): 62 µM; Kd [8]: 17 µM; Reduction in binding affinity for PPAR gamma compared to PFOA [8]: approximately 50 fold
"N.O=C(O)C(F)(F)C(F)(F)C(F)(F)C(F)(F)C(F)(F)C(F)(F)C(F)(F)F [XEN1001, Ammoniumperfluorooctanoate]",,,,,,,,,,,,,,,,equimolar concentrations of PFOA,,,,,Lost bodyweight up to day [9]: 7 days
